Test results taken from ChEMBL document CHEMBL4382291, “Aminopyrazole Carboxamide Bruton's Tyrosine Kinase Inhibitors. Irreversible to Reversible Covalent Reactive Group Tuning” (ACS Med Chem Lett, 2019).

What was measured:
[1] = target: Proto-oncogene tyrosine-protein kinase Src (Homo sapiens, UniProt P12931); assay: Inhibition of full-length recombinant human C-terminal His-tagged SRC cytoplasmic domain expressed in baculovirus expression system using FAM-Srctide peptide as substrate preincubated for 1 hr followed by substrate addition and measured after 1 hr by TR-FRET Lanthascreen assay
Proto-oncogene tyrosine-protein kinase Src, sequence (P12931 2-536 limits assumed): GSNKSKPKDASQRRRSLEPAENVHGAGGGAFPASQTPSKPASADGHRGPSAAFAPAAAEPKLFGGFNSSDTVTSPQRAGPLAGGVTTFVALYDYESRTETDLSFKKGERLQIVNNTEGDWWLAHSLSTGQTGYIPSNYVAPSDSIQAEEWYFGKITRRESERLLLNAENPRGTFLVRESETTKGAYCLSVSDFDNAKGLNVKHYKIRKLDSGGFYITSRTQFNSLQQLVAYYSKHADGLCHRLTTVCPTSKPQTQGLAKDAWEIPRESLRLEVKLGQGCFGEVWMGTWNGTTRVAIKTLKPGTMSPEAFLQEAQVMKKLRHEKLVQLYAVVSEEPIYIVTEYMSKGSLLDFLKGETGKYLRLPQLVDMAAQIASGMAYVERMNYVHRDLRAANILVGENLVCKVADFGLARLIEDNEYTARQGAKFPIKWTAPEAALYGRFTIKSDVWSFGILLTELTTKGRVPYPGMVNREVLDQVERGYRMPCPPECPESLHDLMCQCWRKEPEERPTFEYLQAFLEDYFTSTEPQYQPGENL

[2] = target: T1, Tyrosine-protein kinase BTK (Homo sapiens, UniProt Q06187)
T1 sequence (Q06187 whole entry): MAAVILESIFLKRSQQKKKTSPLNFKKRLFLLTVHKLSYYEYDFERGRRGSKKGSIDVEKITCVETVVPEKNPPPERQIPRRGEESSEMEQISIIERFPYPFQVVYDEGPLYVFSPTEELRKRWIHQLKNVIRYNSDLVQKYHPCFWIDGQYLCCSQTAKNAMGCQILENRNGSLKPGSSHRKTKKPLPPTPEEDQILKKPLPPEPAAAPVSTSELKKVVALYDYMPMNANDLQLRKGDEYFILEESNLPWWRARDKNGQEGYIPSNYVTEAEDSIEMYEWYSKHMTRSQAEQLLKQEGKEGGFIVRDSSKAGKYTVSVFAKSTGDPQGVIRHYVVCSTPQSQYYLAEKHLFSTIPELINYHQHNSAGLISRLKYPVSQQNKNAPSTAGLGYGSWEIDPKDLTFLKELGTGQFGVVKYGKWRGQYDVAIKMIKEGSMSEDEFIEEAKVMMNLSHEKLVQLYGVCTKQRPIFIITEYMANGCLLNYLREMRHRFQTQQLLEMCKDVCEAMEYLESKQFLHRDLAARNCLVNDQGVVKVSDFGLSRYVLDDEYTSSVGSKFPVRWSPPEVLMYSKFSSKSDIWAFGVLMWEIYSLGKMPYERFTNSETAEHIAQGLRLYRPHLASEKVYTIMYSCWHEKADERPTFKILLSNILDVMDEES
Description: Reversible inhibition of full-length human His-tagged BTK expressed in baculovirus expression system assessed as apparent dissociation half life by kinase tracer 236 based TR-FRET assay

[3] = target: Tyrosine-protein kinase BTK (Homo sapiens, UniProt Q06187, C481S); assay: Inhibition of full-length human C-terminal His6-tagged BTK C481S mutant expressed in Sf9 insect cells using FAM-Srctide peptide as substrate preincubated for 1 hr followed by substrate addition and measured after 1 hr by TR-FRET Lanthascreen assay
Tyrosine-protein kinase BTK (Homo sapiens, UniProt Q06187, C481S), sequence (Q06187 2-659 C481S limits assumed): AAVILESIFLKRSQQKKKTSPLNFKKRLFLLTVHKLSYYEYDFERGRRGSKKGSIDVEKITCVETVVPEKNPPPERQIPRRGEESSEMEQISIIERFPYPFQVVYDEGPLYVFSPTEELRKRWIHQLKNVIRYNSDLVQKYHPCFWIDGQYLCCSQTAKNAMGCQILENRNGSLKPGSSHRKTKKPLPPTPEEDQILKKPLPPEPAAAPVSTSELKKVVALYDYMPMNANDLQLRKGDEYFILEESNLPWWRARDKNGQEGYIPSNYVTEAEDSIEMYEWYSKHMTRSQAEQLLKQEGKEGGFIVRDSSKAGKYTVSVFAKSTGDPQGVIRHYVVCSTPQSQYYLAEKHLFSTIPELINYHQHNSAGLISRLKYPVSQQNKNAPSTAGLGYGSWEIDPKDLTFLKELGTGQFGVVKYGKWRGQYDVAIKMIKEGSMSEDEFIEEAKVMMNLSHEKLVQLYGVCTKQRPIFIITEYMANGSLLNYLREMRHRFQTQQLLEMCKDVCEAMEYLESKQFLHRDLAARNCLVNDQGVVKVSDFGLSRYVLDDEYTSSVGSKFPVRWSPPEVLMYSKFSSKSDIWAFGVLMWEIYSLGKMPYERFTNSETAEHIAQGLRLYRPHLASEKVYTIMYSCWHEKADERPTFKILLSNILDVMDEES

[4] = target: T1, Tyrosine-protein kinase BTK; assay: Inhibition of BTK in human whole blood assessed as reduction in anti-human IgE antibody-stimulated histamine release pretreated for 2 hrs followed by anti-human IgE antibody-stimulation and measured after 30 mins by ELISA; type: tissue-based
[5] = target: T1, Tyrosine-protein kinase BTK; assay: Inhibition of BTK in goat anti-human IgM F(ab')2-stimulated human whole blood assessed as suppression of CD69 expression on B cells pretreated for 1 hr followed by goat anti-human IgM F(ab')2-stimualtion and measured after 3 hrs by Fix/Lyse reagent based flow cytometry; type: tissue-based
[6] = Oral bioavailability in Wistar Han rat at 1 mg/kg administered via gavage by LC-MS/MS analysis; type: ADME, organism-based; conditions: in vivo
[7] = Permeability in RRCK cells; type: ADME, cell-based, Canis lupus familiaris, MDCKII-LE; conditions: dog, MDCK; read-out: permeability
[8] = target: T1, Tyrosine-protein kinase BTK; remark: listed apart in the source
Description: Inhibition of full-length human His-tagged BTK expressed in baculovirus expression system using FAM-Srctide peptide as substrate preincubated for 1 hr followed by substrate addition and measured after 1 hr by TR-FRET Lanthascreen assay

[9] = target: Epidermal growth factor receptor (Homo sapiens, UniProt P00533)
Epidermal growth factor receptor, sequence (P00533 whole entry): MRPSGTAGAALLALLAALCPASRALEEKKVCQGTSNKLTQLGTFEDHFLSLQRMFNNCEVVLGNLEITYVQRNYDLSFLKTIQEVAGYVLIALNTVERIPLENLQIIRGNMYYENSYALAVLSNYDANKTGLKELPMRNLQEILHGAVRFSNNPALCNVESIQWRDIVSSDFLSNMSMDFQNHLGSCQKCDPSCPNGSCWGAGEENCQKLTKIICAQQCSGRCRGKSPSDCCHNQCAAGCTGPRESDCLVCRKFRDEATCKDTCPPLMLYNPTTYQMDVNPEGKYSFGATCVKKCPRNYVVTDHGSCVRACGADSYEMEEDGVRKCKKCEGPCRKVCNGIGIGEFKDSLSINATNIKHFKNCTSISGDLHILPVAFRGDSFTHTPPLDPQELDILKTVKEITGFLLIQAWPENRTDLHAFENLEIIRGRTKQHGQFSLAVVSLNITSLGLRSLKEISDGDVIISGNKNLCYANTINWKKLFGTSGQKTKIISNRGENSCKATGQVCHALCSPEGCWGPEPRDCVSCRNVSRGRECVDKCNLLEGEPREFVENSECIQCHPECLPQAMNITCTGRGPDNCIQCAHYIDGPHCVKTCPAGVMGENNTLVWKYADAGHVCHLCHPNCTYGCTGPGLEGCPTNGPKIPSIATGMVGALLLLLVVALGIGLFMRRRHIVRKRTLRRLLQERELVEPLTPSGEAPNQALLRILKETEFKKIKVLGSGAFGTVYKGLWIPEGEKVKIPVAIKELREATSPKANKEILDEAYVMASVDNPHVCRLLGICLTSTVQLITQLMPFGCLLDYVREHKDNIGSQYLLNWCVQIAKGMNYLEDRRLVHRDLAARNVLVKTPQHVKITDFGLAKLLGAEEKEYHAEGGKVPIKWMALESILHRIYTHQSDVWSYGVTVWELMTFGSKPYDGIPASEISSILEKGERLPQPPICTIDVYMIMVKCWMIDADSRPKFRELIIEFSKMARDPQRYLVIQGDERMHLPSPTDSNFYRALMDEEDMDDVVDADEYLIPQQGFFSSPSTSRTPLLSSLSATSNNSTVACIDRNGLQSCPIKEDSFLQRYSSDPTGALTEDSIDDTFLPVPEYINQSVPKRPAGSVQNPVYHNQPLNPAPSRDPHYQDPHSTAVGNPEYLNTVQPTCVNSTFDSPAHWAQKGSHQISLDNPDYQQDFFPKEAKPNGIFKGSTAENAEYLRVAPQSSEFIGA

[10] = Clearance in human microsomes; type: ADME, Microsome
[11] = Cytotoxicity against human THLE cells; type: cell-based

Row | Compound | IC50 [1] [nM] | T1/2 [2] [h] | IC50 [3] [nM] | IC50 [4] [nM] | IC50 [5] [nM] | bioavailability [6] [%] | Papp [7] [×10⁻⁶ cm/s] | IC50 [8] [nM] | IC50 [9] [nM] | microsomal CLint [10] [µL/min/mg] | IC50 [11] [nM]
1 | N#CN1CCC[C@@H](n2nc(-c3ccc(Oc4ccc(F)cc4F)cc3)c(C(N)=O)c2N)C1 | 1630 | 6 | 43 | 64 | 53 | 76 to 93 | > 10 | 1.5 | 16800 | < 8 | 137000
2 | N#CN1CCC[C@@H](n2nc(-c3ccc(Oc4ccc(Cl)cc4)cc3)c(C(N)=O)c2N)C1 | 1400 | 6 | 48 | 21 | 46 | 76 to 93 | > 10 | – | – | < 8 | –
3 | C=CC(=O)N1CCC[C@@H](n2nc(-c3ccc(Oc4ccccc4)cc3)c3c(N)ncnc32)C1 [IBRUTINIB] | – | – | – | – | – | – | – | – | – | – | 11000
4 | C=CC(=O)N1CCC[C@@H](n2nc(-c3ccc(Oc4ccc(F)cc4F)cc3)c(C(N)=O)c2N)C1 | 4030 | > 24 | 17 | – | – | – | – | 0.25 | 26 | – | 15000
5 | C=CC(=O)N1CCC[C@@H](n2nc(-c3ccc(Oc4ccc(Cl)cc4)cc3)c(C(N)=O)c2N)C1 | 72 | – | – | – | – | – | – | 0.18 | 15 | – | –
6 | NC(=O)c1c(-c2ccc(Oc3ccc(F)cc3F)cc2)nn([C@@H]2CCCN(C(=O)/C=C/CO)C2)c1N | 4610 | > 24 | 33 | – | – | – | – | – | 2910 | – | 43000
7 | NC(=O)c1c(-c2ccc(Oc3ccc(F)cc3F)cc2)nn([C@@H]2CCCN(C(=O)/C=C/CF)C2)c1N | 3140 | > 24 | 90 | – | – | – | – | 2.7 | – | – | 49000
8 | C=C(C)C(=O)N1CCC[C@@H](n2nc(-c3ccc(Oc4ccc(F)cc4F)cc3)c(C(N)=O)c2N)C1 | 3350 | – | 176 | – | – | – | – | 247 | > 20000 | – | –
9 | NC(=O)c1c(-c2ccc(Oc3ccc(F)cc3F)cc2)nn([C@@H]2CCCN(C(=O)/C=C/C(F)F)C2)c1N | 5840 | > 24 | 115 | – | – | – | – | 0.41 | – | – | 8000
10 | N#CN1CCC[C@@H](n2nc(-c3ccc(Oc4cccc(C(F)(F)F)n4)cc3)c(C(N)=O)c2N)C1 | 14400 | 3 | 36 | 42 | 33 | 76 to 93 | > 10 | – | > 20000 | < 8 | –
11 | N#CN1CCC[C@@H](n2nc(-c3ccc(Oc4ccc(Cl)cn4)cc3)c(C(N)=O)c2N)C1 | > 20000 | 7 | 92 | 95 | 45 | 76 to 93 | > 10 | 6.2 | 15400 | < 8 | –
12 | N#CN1CCC[C@@H](n2nc(-c3ccc(Oc4ccccc4)cc3)c(C(N)=O)c2N)C1 | 4.2 | 7 | 2.8 | – | – | – | – | 0.37 | 1710 | – | –
13 | C/C=C/C(=O)N1CCC[C@@H](n2nc(-c3ccc(Oc4ccc(F)cc4F)cc3)c(C(N)=O)c2N)C1 | 3410 | > 24 | 66 | – | – | – | – | 61 | > 20000 | – | 149000
14 | CN(C)C/C=C/C(=O)N1CCC[C@@H](n2nc(-c3ccc(Oc4ccc(F)cc4F)cc3)c(C(N)=O)c2N)C1 | 370 | > 24 | 65 | – | – | – | – | 3.7 | 149 | – | 15000
15 | C=C(F)C(=O)N1CCC[C@@H](n2nc(-c3ccc(Oc4ccc(F)cc4F)cc3)c(C(N)=O)c2N)C1 | 6480 | > 24 | 170 | – | – | – | – | – | 570 | – | 67000
16 | N#CN1CCC[C@@H](n2nc(-c3ccc(Oc4ncc(Cl)cc4F)cc3)c(C(N)=O)c2N)C1 | > 20000 | 5 | 230 | 50 | 89 | 76 to 93 | > 10 | – | > 20000 | < 8 | –
